Data: patent publication US8513226B2, “Simultaneous method for the preparation of a mixture of 3-acetoxy-17-acetamido-16-formyl-androst-5,17-diene and 3-acetoxy-2'-chloro-5-androsteno[17,16-b]pyridine” (Council of Scientific and Industrial Research, priority 2008, dated 2013)
“Also recorded” adds a separate entry of the source. Where two headings read alike, the source gives them in different places.

What was measured:
pylorus-ligated rats = experiment: Gastric secretion in pylorus-ligated rats; assay type: in vivo, rat
Method: The pylorus of each rat was ligated under anesthesia according to the method of Shay et. al. (H Shay, S A Komarov, S S Fels, D Merange, M Grunstein & H Siplet, Gastroenterol. 1945, 4, 43). Each of the animals were then allowed to stand abstained from food and water in a cage. After 4 h, the animals were sacrificed and the stomachs were removed. The gastric contents were collected and centrifuged, and the secretory volume, pH and acid content of the supernatants were measured. The acid content was measured by titrating to pH 7.0 with 0.01 N NaOH using an autotitrator (Metrohm). The total acid content of the drug treated groups was compared to that of control groups, presented graphically in FIG. 5 and thereby, the reduction percentage of acid content was calculated. Compound 4 was suspended in 0.4% HPMC and administered orally at graded dose (10, 20, 50 and 100 mg/kg dose) in different groups 45 min before the ligation. In the control group, the vehicle (0.4% HPMC) was administered.

H^+,K^+-ATPase = H^+,K^+-ATPase (Sus scrofa, UniProt P19156); experiment: H+,K+-ATPase (gastric proton pump) inhibition in pig gastric membranes; assay type: biochemical; settings: for IC50: read-out: calculated IC50, H^+,K^+-ATPase
Sequence of H^+,K^+-ATPase (P19156 whole entry): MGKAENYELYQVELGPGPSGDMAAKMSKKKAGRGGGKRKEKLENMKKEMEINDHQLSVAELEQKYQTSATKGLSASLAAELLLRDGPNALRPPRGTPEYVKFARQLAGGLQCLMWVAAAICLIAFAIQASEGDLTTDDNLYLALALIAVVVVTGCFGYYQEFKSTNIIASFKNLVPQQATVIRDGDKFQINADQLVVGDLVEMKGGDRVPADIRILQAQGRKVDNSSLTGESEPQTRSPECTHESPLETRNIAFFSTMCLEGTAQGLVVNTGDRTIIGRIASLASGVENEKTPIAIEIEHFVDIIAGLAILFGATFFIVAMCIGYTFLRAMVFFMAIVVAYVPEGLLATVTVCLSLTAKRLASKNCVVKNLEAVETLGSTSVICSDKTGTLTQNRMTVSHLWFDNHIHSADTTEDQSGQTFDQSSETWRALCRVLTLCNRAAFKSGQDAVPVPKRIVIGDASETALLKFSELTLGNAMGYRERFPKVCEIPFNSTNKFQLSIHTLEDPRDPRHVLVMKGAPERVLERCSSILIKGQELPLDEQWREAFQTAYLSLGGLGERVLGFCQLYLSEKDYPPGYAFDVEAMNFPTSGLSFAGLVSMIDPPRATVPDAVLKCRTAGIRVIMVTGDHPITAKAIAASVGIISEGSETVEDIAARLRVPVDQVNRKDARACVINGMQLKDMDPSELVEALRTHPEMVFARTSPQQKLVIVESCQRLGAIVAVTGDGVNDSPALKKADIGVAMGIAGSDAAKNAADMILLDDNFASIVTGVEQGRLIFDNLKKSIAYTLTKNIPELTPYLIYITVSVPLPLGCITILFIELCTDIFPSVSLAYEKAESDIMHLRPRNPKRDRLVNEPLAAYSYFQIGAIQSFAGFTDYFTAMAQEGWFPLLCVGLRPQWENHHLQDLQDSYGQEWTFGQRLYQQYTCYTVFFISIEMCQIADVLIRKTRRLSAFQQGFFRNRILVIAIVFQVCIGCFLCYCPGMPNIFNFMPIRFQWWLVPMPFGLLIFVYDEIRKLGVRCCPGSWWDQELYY
Sequence of H^+,K^+-ATPase (P18434 whole entry partner): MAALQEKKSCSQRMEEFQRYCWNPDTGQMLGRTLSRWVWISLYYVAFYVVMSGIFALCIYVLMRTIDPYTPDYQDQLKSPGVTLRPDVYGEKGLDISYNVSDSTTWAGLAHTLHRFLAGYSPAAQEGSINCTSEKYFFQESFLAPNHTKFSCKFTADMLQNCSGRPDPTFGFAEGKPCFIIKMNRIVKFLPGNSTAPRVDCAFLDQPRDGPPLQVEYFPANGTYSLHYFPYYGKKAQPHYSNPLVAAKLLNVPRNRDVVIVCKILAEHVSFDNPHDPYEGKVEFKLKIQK
Method: Pig gastric membranes enriched in apical and tubulovesicular membranes were prepared as described in the literature (S Bandopadhyay, P K Das, M V Wright, J Nandi, D Bhattacharya & T K Ray, J. Biol. Chem. 1987, 262, 5664). The fundic mucosal regions of pig stomach were desquamated and scrapped to collect oxyntic cell-riched fractions. The homogenized tissue was centrifuged at 5000×g for 8 min, the supernatant was layered over 37% sucrose and centrifuged at 100,000×g for 4½ h. The major membrane band appeared in the interface was collected, diluted with homogenizing buffer and recentrifuged at 110,000×g for 90 min. The pellet containing H^+,K^+-ATPase rich apical and tubulovesicular membranes was suspended in appropriate buffer and stored at −80° C. for use as the source of enzyme.
The H^+,K^+-ATPase activity was measured at 37° C. in a 1 ml reaction mixture containing 2 mM MgCl2, 2 mM ATP, 10 mM PIPES (pH 6.8), 20 mM KCl and 10-15 μg membrane protein. […] After incubation for 10 min, the reaction was terminated by addition of 1 ml ice-chilled TCA (14%).
K^+-stimulated activity, referred to as H^+,K^+-ATPase, was calculated as the difference between the activity in presence of Mg^+2 plus K^+ and basal activity (Mg^+-ATPase) in presence of Mg^+2 alone. […] The liberated inorganic phosphate was quantitated according to a reported procedure (H Sanui, Anal. Biochem. 1974, 60, 489) and the effects of 4 and 5 were assessed. The effects are quantitated in terms of percent inhibition of H^+,K^+-ATPase activity, and compared with that of omeprazole.

[1] = tested on: rabbit gastric parietal cells; experiment: Basal acid secretion (aminopyrine uptake) in gastric parietal cells; assay type: cell-based; settings: Oryctolagus cuniculus
Method: (§1) Briefly, the technique involves high-pressure perfusion of the stomach in live animal with oxygenated PBS, stripping and mincing the mucosa followed by 2-step proteolytic digestion at 37° C., first with a mixture of protease (0.1 mg/ml) and pronase (1 mg/ml) for 15 min and then the pellet obtained therefrom with collagenase (1 mg/ml) for 30 min. The washed cell pellet containing majority of the gastric cells was layered on top of a two-step gradient of Nycodenz (density 1.05 and 1.075 g/ml) and centrifuged at 150×g for 10 min. Parietal cells enriching in between density of 1.05 and 1.075 interface were collected, washed 3 times with respiratory medium and used for the study. The PC preparations were nearly 90% pure and viable.
(§2) The [^14C]-aminopyrine (115 μCi/mM) was added to the suspension at a concentration of 0.1 mCi/ml, and incubation was continued for another 10 min. One-milliliter aliquots of such PC suspension (˜5×10^6 cells) were further incubated in the presence and the absence of histamine (0.1 mM) for 20 min at 37° C. with slow shaking and oxygen top gassing. At the end of the incubation, the PC suspensions were centrifuged, supernatant carefully aspired off and the pellets solubilized in scintillation fluid containing Triton X-100. The resulting solution was counted in a liquid scintillation counter. The aminopyrine accumulation was determined as the ratio of intra- to extracellular aminopyrine according to Mazzeo et al. (A R Mazzeo, J Nandi & R A Levine, Am. J. Physiol. 1988, 254, G57).

Swiss albino mice = experiment: Single-dose acute toxicity evaluation; assay type: in vivo; settings: 1 g/kg body weight orally, 15 days observation
Description: The Compound 4 was checked for mortality of the Swiss albino mice. Five animals of Swiss albino mice strain were used for this purpose. The dosage up to 1 g/kg body weight was given orally per mice and the animals kept up to 15 days under observation. It was observed that the mice were not affected at the dose level of 1 g/kg body weight of Compound 4.

[2] = tested on: indomethacin-induced ulcer in rat; experiment: Indomethacin-induced ulcer in rat; assay type: in vivo; settings: for protection of indomethacin induced ulcer formation: p.o. 45 min before indomethacin 15 mg/kg p.o.
Method: The animals were kept fasting for 24 h before initiating the experiment, drinking water being available ad libitum. The animals were allotted to three groups, each group comprising of six rats. […] Six hours following the administration of indomethacin, the animals were killed, stomachs removed and opened along the greater curvature.

[3] = tested on: cold restraint stress ulcer in rats; experiment: Cold restraint stress induced ulceration; assay type: in vivo, rat; settings: for protection of ulceration induced by cold restraint stress: 50 mg/kg body weight
Method: Adult rats of either sex, weighing about 200 g were fasted for 24 h with free access to water. Compound 4 (in 0.4% hydroxypropylmethylcellulose, HPMC) were administered 45 min before immobilizing the animals. The rats were immobilized in the restraint cage at 4 °C for 4 h and were sacrificed immediately after the restraint period according to the method of Senay and Levine (E C Senay & R J Levine, Proc. Soc. Exp. Biol. Med. 1967, 124, 1221). The abdomen was cut opened, stomach taken out and incised along the greater curvature to observe the gastric lesions. The ulceration was rated and the ulcer index (UI) scored as described in Wagner et al. (K Wagner, J Nandi, R L King & R A Levine, Dig. Dis. Sci. 1995, 40, 134), the effect of compound 4 being expressed graphically as a function of ulcer index and the result was further expressed as the percent protection of the ulcer formation in comparison to the untreated control group (FIG. 4).

[4] = tested on: rabbit gastric parietal cells; experiment: Histamine-stimulated acid secretion (aminopyrine uptake) in gastric parietal cells; assay type: cell-based; settings: histamine 0.1 mM
Method: as §1, §2

Compound: CC(=O)NC1=C(C=O)CC2C3CC=C4CC(OC(C)=O)CCC4(C)C3CCC12C (stereo not shown) [Compound 4, 3-acetoxy-17-acetamido-16-formyl-androst-5,17-diene]
- inhibition of acid output (pylorus-ligated rats; 50 mg/kg): ~33%
- inhibition of acid output (pylorus-ligated rats; 50-100 mg/kg, oral): ~30%
- inhibition of H^+,K^+-ATPase (in words) (H^+,K^+-ATPase): dose dependent
- nature of inhibition of H^+,K^+-ATPase (H^+,K^+-ATPase): irreversible
- Observation (nature of inhibition) (H^+,K^+-ATPase; 10 μM, different protein to inhibitor ratio): Irreversible
- Observation (nature of inhibition) (H^+,K^+-ATPase; 10 μM, function of preincubation time): Irreversible
- inhibition at 10 µM (H^+,K^+-ATPase; 10 μM, preincubation time 0 min, read-out: % Inhibition of H^+, K^+-ATPase): 2%
- inhibition at 10 µM (H^+,K^+-ATPase; 10 μM, preincubation time 30 min, read-out: % Inhibition of H^+, K^+-ATPase): 56%
- inhibition at 10 µM (H^+,K^+-ATPase; 10 μM, protein concentration 5 μg/assay, read-out: % Inhibition of H^+, K^+-ATPase): 75%
- inhibition at 10 µM (H^+,K^+-ATPase; 10 μM, protein concentration 20 μg/assay, read-out: % Inhibition of H^+, K^+-ATPase): 57%
- inhibition at 1 µM (H^+,K^+-ATPase; concentration 1 μM): 7%
- inhibition at 5 µM (H^+,K^+-ATPase; concentration 5 μM): 20%
- inhibition at 10 µM (H^+,K^+-ATPase; concentration 10 μM, read-out: % Inhibition H^+, K^+-ATPase): 47%
- inhibition at 100 µM (H^+,K^+-ATPase; concentration 100 μM): 75%
- IC50 (H^+,K^+-ATPase): 18 µM
- inhibition at 300 µM ([1]; 300 μM (highest concentration)): ~10%
- mortality and behavioral abnormality, single-dose acute toxicity (Swiss albino mice): No mortality and behavioral abnormality; also recorded: did not show acute toxicity
- anti ulcer activity in indomethacin-induced ulcer model (in words) ([2]; 10-50 mg/kg b.w.): potent anti ulcer activity
- protection of indomethacin induced ulcer formation [2]: ~75%
- protection of ulceration induced by cold restraint stress [3]: 54%
- antiulcer activity in cold restraint stress ulcer model (in words) ([3]; 50 mg/kg body wt.): potent antiulcer activity
- IC50 ([4]; Oryctolagus cuniculus, read-out: IC50, inhibition of histamine-stimulated acid secretion): ~130 µM
- activity compared with cimetidine in inhibiting histamine-stimulated secretion [4]: IC50 value comparable to cimetidine; also recorded: almost equiactive as compared with cimetidine

Compound: CN/C(=N/CCSCc1nc[nH]c1C)NC#N [Cimetidine, reference compound]
- inhibition of acid output (pylorus-ligated rats; 50 mg/kg): ~80%
- inhibition at 200 µM ([1]; 200 μM): ~10%
- protection of ulceration induced by cold restraint stress [3]: 86%

Compound: CC(=O)O[C@H]1CC[C@@]2(C)C(=CC[C@@H]3[C@@H]2CC[C@]2(C)c4nc(Cl)ccc4C[C@@H]32)C1 [Compound 5, 3-acetoxy-2′-chloro-5-androsteno[17,16-b]pyridine]
- inhibition of H^+,K^+-ATPase (in words) (H^+,K^+-ATPase): nominal
- % Inhibition H^+, K^+-ATPase (H^+,K^+-ATPase; concentration 1 μM): 2%
- % Inhibition H^+, K^+-ATPase (H^+,K^+-ATPase; concentration 10 μM): 37%
- % Inhibition H^+, K^+-ATPase (H^+,K^+-ATPase; concentration 100 μM): 57%

Compound: COc1ccc2[nH]c([S+]([O-])Cc3ncc(C)c(OC)c3C)nc2c1 (stereo not shown) [Omeprazole, 5-methoxy-2-[(4-methoxy-3,5-dimethyl-2-pyridinyl)-methyl]sulfinyl-1H-benzimidazole, reference compound]
- inhibition at 3 µM (H^+,K^+-ATPase; concentration 3 μM): 20%
- inhibition at 30 µM (H^+,K^+-ATPase; concentration 30 μM): 80%
- inhibition of H^+,K^+-ATPase (H^+,K^+-ATPase; concentration range 3 μM and 30 μM): 20-80%
- potency relative to 4 (H^+,K^+-ATPase) (H^+,K^+-ATPase; from IC50 values): about three times more potent than 4
- IC50 (H^+,K^+-ATPase): ~6 µM
- inhibition at 20 µM ([1]; 20 μM): 80 to 90%
- protection of indomethacin induced ulcer formation [2]: ~90%
